Measured values reported in US20170037117A1, “COMPOSITIONS AND METHODS FOR TREATING METABOLIC DISORDERS” (Salk Institute for Biological Studies, priority 2014, published 2017).
“Also recorded” adds a separate entry of the source. Ends that are not written are not given here.

What was measured:
[1] = test system: G1 Fab binding to human α-CGRP on the chip; test: Epitope mapping of antibody G1 by peptide competition using Biacore; details: for percentage of binding of G1 Fab to human α-CGRP blocked by competing peptide: 10 uM peptide in 50 nM G1 Fab (2000:1 mol peptide/Fab), FIG. 6
G1 Fab binding to human α-CGRP on the chip, sequence (as listed by the source): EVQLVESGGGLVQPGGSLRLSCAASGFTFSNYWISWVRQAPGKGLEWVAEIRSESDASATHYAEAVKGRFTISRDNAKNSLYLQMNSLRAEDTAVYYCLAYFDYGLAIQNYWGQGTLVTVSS
G1 Fab binding to human α-CGRP on the chip, sequence (as listed by the source): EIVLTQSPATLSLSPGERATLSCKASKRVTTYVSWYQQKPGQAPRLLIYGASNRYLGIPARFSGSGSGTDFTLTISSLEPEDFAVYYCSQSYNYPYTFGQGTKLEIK
Source text: N-biotinylated human α-CGRP was captured on SA sensor chip. […] Y axis represents percentage of binding blocked by the presence of the competing peptide compared with the binding in the absence of the competing peptide.
Human α-CGRP was purchased as an N-biotinylated version to enable its high-affinity capture via SA sensor chips. […] All these peptides are amidated at the C-terminus.

[2] = Indirect calorimetry (RER, oxygen consumption) of old wild-type mice treated with CGRP8-37 by osmotic pump; format: in vivo, mouse; details: old (22-23 months) male WT C57BL/6J mice, osmotic pumps, 5.5 mg/mL, after 6 weeks of treatment
Description: FIGS. 15A-15C: Insulin secretion assay of mouse insulinoma cells (MIN6) upon 16.8 mM glucose stimulation. Cells were incubated with 0.1-0.5 μM synthetic peptides for FIG. 15A: rat CGRPα, FIG. 15B: rat CGRPβ and FIG. 15C: rat Substance P, n=4, means±S.E.M, **p<0.01, *p<0.05, Student's t test. FIG. 15D: Serum levels of CGRP measured by ELISA in blood samples from WT and TRPV1 mutants at 3 and 24 months, n=7, means±S.E.M. a, ns and b, p<0.05. FIG. 15E: Respiratory exchange ratio (RER) analysis and oxygen consumption FIG. 15F: of 23 months old male WT animals treated with CGRP8-37 or vehicle control, n=10, means±S.E.M.,**p<0.01, *p<0.05, Student's t test.
Indirect calorimetric studies were conducted in a Comprehensive Lab Animal Monitoring System (Columbus Instruments). For GTT and GSIS, glucose (2 g/kg weight) was intraperitoneally administered and blood glucose was measured from tail bleeds at indicated times after injection using a One Touch Ultra glucometer (LifeScan). For the ITT, 5 hour fasted mice were injected with 1 u/kg of human insulin (Humulin; Eli Lily) and glucose was measured as in the GTT. […] Serum insulin was measured using an UltraSensitive Insulin ELISA kit (Crystal Chem). Serum levels of fasted leptin, adiponectin were measured using Quantikine ELISA Kits (R&D systems). […] CGRP was measured using ELISA (EIAab). […]

[3] = test system: CRTC1 shuttling in DRG neurons; test: CRTC1 nuclear shuttling in dissociated DRG neuronal cultures (immunostaining); format: cell-based, mouse
MIN6 cells = test: Insulin secretion assay of mouse insulinoma cells (MIN6) upon glucose stimulation; format: cell-based; details: 16.8 mM glucose; for effect on glucose-stimulated insulin release: 100 nM to 500 nM peptide, FIGS. 15A-C, 16A
Description: FIGS. 15A-15C: Insulin secretion assay of mouse insulinoma cells (MIN6) upon 16.8 mM glucose stimulation.
FIGS. 16A-16C illustrate insulin secretion and inflammation of the TRPV1 mutant mice. FIG. 16A: Insulin secretion assay of mouse insulinoma cells (MIN6) upon 16.8 mM glucose stimulation with 0.1-0.5 μM synthetic human CGRPα. FIG. 16B: Insulin secretion assay (MIN6) upon 16.8 mM glucose and exendin 4 stimulation.
MIN6 insulinoma cells were obtained at passage 18 from Ulupi Jhala (UCSD, La Jolla, Calif.) and were cultured in DMEM (Life technologies) containing 11 mM glucose, 10% FBS, Glutamax (Invitrogen) and 10 μM β-mercapthoethanol as previously described (Huising et al., Proc. Natl. Acad. Sci. 107:912-917, 2010). Glucose stimulation was performed at low (2.8 mM) and high (16.8 mM). Treatments were diluted in Krebs-Ringer bicarbonate buffer with 2.8 mM glucose.
To mimic pancreatic β-cell glucose mediated insulin release, mouse insulinoma MIN6 cells were used (Huising et al., Proc. Natl. Acad. Sci. 107:912-917, 2010).

K35M (19-37): human α-CGRP mutant fragment, SEQ ID NO: 21, SGGVVKNNFVPTNVGSMAF, C-terminally amidated (SGGVVKNNFVPTNVGSMAF-NH2; listed as Homo sapiens)
percentage of binding of G1 Fab to human α-CGRP blocked by competing peptide [1]: 100%

CGRP 8-37: positive control compound (vasodilatation antagonist); CGRP receptor antagonist (Tocris Bioscience) (VTHRLAGLLSRSGGVVKNNFVPTNVGSKAF-NH2; UniProt P06881 90-119, looked up, fragment)
oxygen consumption ([2]; vs controls): increased
respiratory exchange ratio (RER), metabolic circadian shift from night to day ([2]; vs vehicle): reappearance of a more youthful metabolic circadian shift from night to day

26-37: human α-CGRP fragment 26-37, SEQ ID NO: 35, NFVPTNVGSKAF, C-terminally amidated [Clone 26-37]
percentage of binding of G1 Fab to human α-CGRP blocked by competing peptide [1]: 100%

8-37: human α-CGRP fragment 8-37, SEQ ID NO: 16, VTHRLAGLLSRSGGVVKNNFVPTNVGSKAF, C-terminally amidated [Clone 8-37]
percentage of binding of G1 Fab to human α-CGRP blocked by competing peptide [1]: 100%

1-37 of β-CGRP (WT): human β-CGRP 1-37, SEQ ID NO: 43, ACNTATCVTHRLAGLLSRSGGMVKSNFVPTNVGSKAF, C-terminally amidated
percentage of binding of G1 Fab to human α-CGRP blocked by competing peptide [1]: 100%

K35E (19-37): human α-CGRP mutant fragment, SEQ ID NO: 20, SGGVVKNNFVPTNVGSEAF, C-terminally amidated (SGGVVKNNFVPTNVGSEAF-NH2; listed as Homo sapiens)
percentage of binding of G1 Fab to human α-CGRP blocked by competing peptide [1]: 100%

K35A (19-37): human α-CGRP mutant fragment, SEQ ID NO: 19, SGGVVKNNFVPTNVGSAAF, C-terminally amidated (SGGVVKNNFVPTNVGSAAF-NH2; listed as Homo sapiens)
percentage of binding of G1 Fab to human α-CGRP blocked by competing peptide [1]: 100%

P29A (19-37): human α-CGRP mutant fragment, SEQ ID NO: 18, SGGVVKNNFVATNVGSKAF, C-terminally amidated (SGGVVKNNFVATNVGSKAF-NH2; listed as Homo sapiens)
percentage of binding of G1 Fab to human α-CGRP blocked by competing peptide [1]: 100%

NC1=N[C@H](O)[C@H]2[C@H]3O[C@]4(O)O[C@@H]([C@@H](O)[C@@]2(N1)[C@@H]4O)[C@]3(O)CO [TTX, Tetrodotoxin]
distribution of CRTC1 [3]: remained mostly cytoplasmic

rat β-CGRP: rat β-CGRP 1-37, SEQ ID NO: 44, SCNTATCVTHRLAGLLSRSGGVVKDNFVPTNVGSKAF
percentage of binding of G1 Fab to human α-CGRP blocked by competing peptide [1]: 100%
effect on glucose-stimulated insulin release (MIN6 cells): insulin release was greatly blunted
reduction of insulin release, % of the maximum insulin response (MIN6 cells; 500 nM peptide): 58%

COc1cccc(NC(=O)/C=C/c2ccc(Cl)cc2)c1 [SB-366791]
CRTC1 nuclear localization after blockade of TRPV1 ([3]; WT DRG neurons, pretreatment prior to stimulation with FSK and Cap, 10 μM or 2 μM, FIG. 14D): robust nuclear exclusion of CRTC1

substance P (RPKPQQFFGLM-NH2; ends and bridges not checked; UniProt P06767 58-68, looked up) [TRPV1 secreted neuropeptide; synthetic rat peptide]
effect on glucose-stimulated insulin release (MIN6 cells): did not alter insulin secretion

G1: humanized IgG2 monoclonal anti-CGRP antagonist antibody; VH SEQ ID NO: 1, VL SEQ ID NO: 2; ATCC PTA-6867 and PTA-6866 [Clone G1]
epitope on human α-CGRP that is recognized by antibody G1 ([1]; Biacore peptide competition and variant affinities): targets a C-terminal epitope of CGRP; also recorded: binds to a C-terminal epitope with F37 and G33 being the most important residues; also recorded: on the C-terminal end of human α-CGRP

COc1cc(CNC(=O)CCCC/C=C/C(C)C)ccc1O [Cap, capsaicin]
CRTC1 nuclear localization [3]: accumulation of CRTC1 in the nuclei of TRPV1-positive cells
Cap-induced CRTC1 shuttling ([3]; TRPV1 mutant DRG neurons, Cap 1 μM, FIG. 14C): abolished

rat α-CGRP: rat α-CGRP 1-37, SEQ ID NO: 41, SCNTATCVTHRLAGLLSRSGGVVKDNFVPTNVGSEAF
percentage of binding of G1 Fab to human α-CGRP blocked by competing peptide [1]: 100%
reduction of insulin release, % of the maximum insulin response (MIN6 cells; 100 nM peptide): 46%
effect on glucose-stimulated insulin release (MIN6 cells): insulin release was greatly blunted
